We go through 1 molecule from patent US20100130597A1, “DNA-PKCS MODULATES ENERGY REGULATION AND BRAIN FUNCTION” (The United State of America, as represented by the …, priority 2007, published 2010).

Experiment [1] concerns mouse embryonic fibroblasts and Chinese hamster ovary cells. As to conditions: Veuger et al 2003; Griffin et al. 2005; cited from earlier work.
The next experiment can be described thus: Light/dark chamber test. Format: in vivo. As to conditions: treated vs untreated mice. On the procedure: WT and SCID mice were tested in another anxiety test using the light-dark box (Bourin and Hascoet, Eur J Pharmacol 463:55 (2003)). The light-dark box test is based on the innate aversion of rodents to brightly illuminated areas and on the spontaneous exploratory behavior of rodents in response to a mildly stressful situation, that is, a novel environment and light (Crawley and Goodwin Pharmacol Biochem Behav 13:167, 1980). In the light-dark test, increased activity in the light compartment indicates decreased anxiety.
(§1) Elevated plus maze tests, light/dark chamber tests, forced swim tests (FST) and hot plate tests were performed as described earlier.

In another experiment the test system is Sirt1 and PGC-1α. As to the kind of experiment: Sirt1 and PGC-1α expression in C2C12 myoblasts. Format: cell-based. On the procedure:
Increased mitochondrial function boosts energy production and physical endurance. […] Further tests were therefore conducted to ascertain whether DNA-PKcs inhibitor elevates mitochondrial biogenesis and expression of PGC-1α and Sirt, which are important for mitochondrial biogenesis. […] It is important to note that only 2.5 μM of NU7026 was required to induce a similar level of Sirt1 to that induced by 25-50 μM Resveratrol, a well-known, potent Sirt1 activator.

A further experiment concerns PGC-1α. Kind of experiment: PGC-1α expression in AMPK α1/α2-null MEFs. As to conditions: FIG. 53. Format: cell-based, mouse. The text has this: AMPK is a heterotrimer kinase composed of a catalytic α subunit, and the β and γ regulatory subunits. There are two isoforms (α1 and α2) of the catalytic α subunit.
Experiment [2] deals with AMPK. As to the kind of experiment: AMPK activation in quiescent MCF7 cells. Format: cell-based. As to conditions: 1 and 2.5 μM, FIG. 20. Here is the method: MCF7 cells were obtained from the ATCC. MCF7 cells in G0 were treated with varying doses of H2O2 (FIG. 1). The cells were examined while in the G0 phase of their life cycle to mimic the post-mitotic state of cells in vivo. Low passage MCF-7 cells in G0 were exposed to varying concentrations of H2O2 for 60 minutes with or without Euk-134 or ionizing radiation (5 Gy). For Western blot analysis of DNA-PKcs activation and the activation of other signaling pathways in this study, the following antibodies were used: ACC1 (Cell Signaling); p-ACC1 (Upstate); AMP-activated protein kinase (AMPK; Cell Signaling); p-AMPK(T172) (Cell Signaling); DNA-PK (Lab Vision); p53 (Novocastra); p-DNA-PK(S2056) (Abeam); p-p53(S15) (Cell Signaling); γ-H2AX (Upstate); 53BP1 (Novus Biologicals).
ENLITEN ATP assay kit (Promega) and ApoGlow assay kit (Cambrex), respectively. […] To determine whether the AMPK-inhibitory function of DNA-PKcs is cell autonomous, quiescent MCF7 cells were treated with 1 and 2.5 μM NU7026.

The subject of experiment [3] is AMPK. Kind of experiment: AMPK activation in C2C12 cells. Format: cell-based. Here is the method: Expression of PGC-1α (FIGS. 12-14 and 49) can be induced by multiple proteins, including the energy sensor AMPK and the longevity protein Sirt1. Nutrient deprivation stimulates AMPK activity due to increasing AMP/ATP ratios. AMPK is activated by LKB1 kinase. Alternately, AMPK is also activated by a Ca^2+/calmodulin-dependent protein kinase (CaMK) without AMP. In order to test which upstream kinase plays a major role for AMPK activation after DNA-PKcs inhibition, C2C12 cells were treated with NU7026 in the presence or absence of a known CaMK chemical inhibitor ST0609. […] This raised the possibility that DNA-PKcs suppresses LKB1 and subsequently AMPK.

The next experiment concerns C2C12 cells. Kind of experiment: Mitochondrial DNA copy number in C2C12 cells. As to conditions: C2C12 cells, 2.5 μM, FIG. 49C. Format: cell-based. Here is the method: Quantitative Real-Time PCR was used to assess the relative amounts of nuclear DNA and mtDNA, to permit assessment of the ratio of mtDNA to nucleic DNA, which reflects the tissue concentration of mitochondria per cell. Muscle tissues were homogenized and digested with Proteinase K overnight in a lysis buffer for DNA extraction by conventional phenol-chloroform method. Quantitative PCR was performed using the following primers: […]
Increased mitochondrial function boosts energy production and physical endurance. […] Further tests were therefore conducted to ascertain whether DNA-PKcs inhibitor elevates mitochondrial biogenesis and expression of PGC-1α and Sirt, which are important for mitochondrial biogenesis. […] It is important to note that only 2.5 μM of NU7026 was required to induce a similar level of Sirt1 to that induced by 25-50 μM Resveratrol, a well-known, potent Sirt1 activator. In FIG. 49C, mitochondrial DNA copy number increased (>1.8 fold) in C2C12 cells after 2.5 μM NU7026 treatment.

Experiment [4] is described as follows: Glucose levels, insulin tolerance and glucose tolerance tests in treated mice. As to conditions: mice, summary statement. Format: in vivo. On the procedure:
The therapeutic potential of DNA-PKcs inhibitors to treat insulin resistance and diabetes was tested in vivo using high-fat induced type 2 diabetes and obesity models. We examined the effects of DNA-PKcs inhibition by feeding C57BL6/J mice with Compound 36 (Cpd36) or vehicle. Mice were treated with Cpd36 (8 mg/kg body weight) twice daily by oral gavage for three months in all efficacy studies shown in FIGS. 40-47.

For another experiment, the target named is ATM (Homo sapiens, UniProt Q13315). As to conditions: related kinase, selectivity; cited from earlier work.
Sequence of ATM (Q13315 whole entry, species assumed): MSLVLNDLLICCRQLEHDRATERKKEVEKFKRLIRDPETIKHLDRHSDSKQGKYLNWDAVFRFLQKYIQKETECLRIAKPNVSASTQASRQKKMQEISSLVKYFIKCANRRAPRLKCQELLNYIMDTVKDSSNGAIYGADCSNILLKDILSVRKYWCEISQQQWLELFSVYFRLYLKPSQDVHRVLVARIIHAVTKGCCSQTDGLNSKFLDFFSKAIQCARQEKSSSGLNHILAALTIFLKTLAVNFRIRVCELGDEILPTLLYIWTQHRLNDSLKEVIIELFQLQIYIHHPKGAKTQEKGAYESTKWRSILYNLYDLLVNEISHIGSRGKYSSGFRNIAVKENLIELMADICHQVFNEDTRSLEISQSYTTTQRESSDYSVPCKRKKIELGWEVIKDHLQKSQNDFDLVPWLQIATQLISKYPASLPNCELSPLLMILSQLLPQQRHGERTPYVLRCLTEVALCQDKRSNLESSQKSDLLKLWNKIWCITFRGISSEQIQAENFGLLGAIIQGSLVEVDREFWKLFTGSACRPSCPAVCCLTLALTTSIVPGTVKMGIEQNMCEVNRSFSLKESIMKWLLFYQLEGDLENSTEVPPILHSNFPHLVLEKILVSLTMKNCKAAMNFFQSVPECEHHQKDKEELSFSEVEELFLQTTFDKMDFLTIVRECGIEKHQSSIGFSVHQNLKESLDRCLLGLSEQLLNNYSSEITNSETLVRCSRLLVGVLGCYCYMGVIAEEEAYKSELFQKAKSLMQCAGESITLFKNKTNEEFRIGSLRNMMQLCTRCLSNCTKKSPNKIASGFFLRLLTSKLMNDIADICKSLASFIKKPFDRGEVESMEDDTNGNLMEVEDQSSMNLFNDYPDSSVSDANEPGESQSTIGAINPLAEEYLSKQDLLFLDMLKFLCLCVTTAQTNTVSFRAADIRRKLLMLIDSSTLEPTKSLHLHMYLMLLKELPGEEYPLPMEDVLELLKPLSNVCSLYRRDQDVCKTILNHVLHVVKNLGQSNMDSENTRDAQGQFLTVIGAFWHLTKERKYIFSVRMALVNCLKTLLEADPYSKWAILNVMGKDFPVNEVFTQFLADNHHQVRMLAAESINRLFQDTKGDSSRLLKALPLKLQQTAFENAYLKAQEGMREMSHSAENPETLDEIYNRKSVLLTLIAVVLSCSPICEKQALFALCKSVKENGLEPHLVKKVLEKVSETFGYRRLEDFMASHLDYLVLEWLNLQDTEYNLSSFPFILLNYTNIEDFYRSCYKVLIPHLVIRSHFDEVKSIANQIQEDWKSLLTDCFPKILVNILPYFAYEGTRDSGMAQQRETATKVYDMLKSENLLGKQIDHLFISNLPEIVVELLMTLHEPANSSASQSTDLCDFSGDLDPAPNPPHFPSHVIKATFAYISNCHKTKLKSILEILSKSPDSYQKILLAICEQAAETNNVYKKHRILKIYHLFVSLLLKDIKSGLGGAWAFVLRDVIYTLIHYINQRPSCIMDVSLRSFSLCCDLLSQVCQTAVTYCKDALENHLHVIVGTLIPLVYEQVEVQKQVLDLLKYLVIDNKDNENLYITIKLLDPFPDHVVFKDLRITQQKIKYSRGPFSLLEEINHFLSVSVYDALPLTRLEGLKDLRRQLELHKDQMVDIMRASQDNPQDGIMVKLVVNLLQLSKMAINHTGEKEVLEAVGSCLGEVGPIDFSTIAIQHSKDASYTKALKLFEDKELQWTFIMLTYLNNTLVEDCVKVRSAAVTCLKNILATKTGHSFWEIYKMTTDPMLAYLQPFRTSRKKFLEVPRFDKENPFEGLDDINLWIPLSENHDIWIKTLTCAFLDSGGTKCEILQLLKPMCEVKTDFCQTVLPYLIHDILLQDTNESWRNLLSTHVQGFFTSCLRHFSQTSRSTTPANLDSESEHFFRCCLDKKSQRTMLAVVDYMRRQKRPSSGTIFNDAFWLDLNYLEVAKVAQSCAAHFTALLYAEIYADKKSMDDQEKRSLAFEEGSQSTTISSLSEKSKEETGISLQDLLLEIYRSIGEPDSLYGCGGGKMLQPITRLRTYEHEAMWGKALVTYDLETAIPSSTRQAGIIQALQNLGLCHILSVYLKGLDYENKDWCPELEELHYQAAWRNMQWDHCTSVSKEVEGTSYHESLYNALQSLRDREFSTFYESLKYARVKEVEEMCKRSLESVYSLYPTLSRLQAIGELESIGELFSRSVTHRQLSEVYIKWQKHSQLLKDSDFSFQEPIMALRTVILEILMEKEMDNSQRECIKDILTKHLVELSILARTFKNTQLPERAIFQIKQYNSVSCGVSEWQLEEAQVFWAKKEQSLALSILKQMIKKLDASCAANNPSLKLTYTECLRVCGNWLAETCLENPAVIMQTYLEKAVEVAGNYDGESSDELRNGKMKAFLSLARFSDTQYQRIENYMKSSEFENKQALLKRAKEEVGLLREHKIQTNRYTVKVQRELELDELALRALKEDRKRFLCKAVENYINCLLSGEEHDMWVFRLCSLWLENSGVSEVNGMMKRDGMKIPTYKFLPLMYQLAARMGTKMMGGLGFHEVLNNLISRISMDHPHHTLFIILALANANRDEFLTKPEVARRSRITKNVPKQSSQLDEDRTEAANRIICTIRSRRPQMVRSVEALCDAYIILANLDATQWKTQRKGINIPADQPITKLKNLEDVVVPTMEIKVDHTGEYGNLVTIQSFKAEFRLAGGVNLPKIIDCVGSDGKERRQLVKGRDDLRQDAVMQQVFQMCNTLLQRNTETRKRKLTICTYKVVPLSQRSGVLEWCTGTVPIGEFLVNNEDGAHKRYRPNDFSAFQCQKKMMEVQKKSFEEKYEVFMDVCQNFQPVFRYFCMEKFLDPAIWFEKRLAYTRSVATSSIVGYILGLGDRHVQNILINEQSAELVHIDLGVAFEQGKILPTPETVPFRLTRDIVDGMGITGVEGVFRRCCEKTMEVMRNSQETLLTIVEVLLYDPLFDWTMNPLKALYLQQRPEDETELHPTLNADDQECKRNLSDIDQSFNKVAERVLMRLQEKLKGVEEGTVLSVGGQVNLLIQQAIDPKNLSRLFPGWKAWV
Another experiment has as its system leukemic cells. As to conditions: Willmore et al. Blood 103:4659, 2004; cited from earlier work.
For another experiment, the system named is PI3K. As to conditions: related kinase, selectivity; cited from earlier work.
Another experiment can be described thus: Forced swim test (FST). Format: in vivo, mice. As to conditions: data not shown. Here is the method:
as §1

Broadly, the IC50 is the concentration needed to halve the response being measured. Turning to `O=c1cc(N2CCOCC2)oc2c1ccc1ccccc12` [NU7026, 2-(morpholin-4-yl)-benzo[h]chomen-4-one], the “sensitization to radiation in vitro” value in [1] was “sensitize mouse embryonic fibroblasts and Chinese hamster ovary cells to radiation”. In the experiment “Light/dark chamber test”, the “time in the dark compartment” value was “less time in the dark compartment”. Further, in “Light/dark chamber test”, the “time in the light compartment” value is “more time in the light compartment”. The “time to enter the light chamber” value in “Light/dark chamber test” was “quicker to enter the light chamber”. The “concentration required to induce a similar level of Sirt1” value in the experiment on Sirt1 and PGC-1α amounted to 2.5 µM. Further, the “PGC-1α and Sirt1 expression” value in the experiment on Sirt1 and PGC-1α (FIG. 49) was “dramatically elevated”. Also, in the experiment on PGC-1α, the PGC-1α expression entry is recorded as “not able to induce PGC-1α expression”. Further, the AMPK activation entry with AMPK [2] is “activated AMPK”; in the experiment on AMPK [3] (C2C12 cells, absence of STO609, FIG. 50), “activated”; in the experiment with AMPK [3] (C2C12 cells, presence of CaMK inhibitor STO609, FIG. 50), “still observed”; in the experiment with AMPK [3] (differentiated C2C12 myoblasts, data not shown) it was “also activated AMPK”. Also, the “mitochondrial DNA copy number increase” value in the experiment on C2C12 cells is greater than 1.8 fold. Moreover, the serum glucose levels entry in experiment [4] is “decreased serum glucose levels”. The IC50 at ATM is greater than 100 µM; in the experiment on PI3K, 13 µM. The “sensitization to topoisomerase II inhibitors” value in the experiment on leukemic cells is on record as “sensitize leukemic cells to topoisomerase II inhibitors”. Besides, the “immobility in the forced swim test” value in the experiment “Forced swim test (FST)” is recorded as “decreased immobility”.
